Test systems include A498 renal; DU-145 prostate; HOP-62 NSCLC; MOLT-4 leukemia; NCI-H522 lung; SK-MEL-28 melanoma; UO-31 renal; SR leukemia.
What all share (assay): NCI-60 cell line screen, 48 h

This passage reports GI50 and TGI results from PubChem BioAssay (NCI).

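All cell lines were grown in 96-well plates and treated with compound for 48 hours. GI50 marks 50% less growth. TGI is the concentration that stops growth completely.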

As for `O=Cc1ccc(-c2ccc(-c3nc4ccccc4s3)cc2)o1`, the GI50 was 3.21 µM with A498 renal; 35 µM in the assay on DU-145 prostate; over 100 µM in the assay on HOP-62 NSCLC; over 100000 nM in the assay on MOLT-4 leukemia; over 100 µM in the assay with NCI-H522 lung; over 100 µM with SK-MEL-28 melanoma. In addition, the GI50 with UO-31 renal was over 100 µM. Moreover, the TGI in the assay with A498 renal was 18.8 µM; in the assay with DU-145 prostate, over 100 µM; with HOP-62 NSCLC, over 100 µM; in the assay with MOLT-4 leukemia, over 100 µM; in the assay on NCI-H522 lung, over 100 µM; in the assay on SK-MEL-28 melanoma, over 100 µM. In the assay with UO-31 renal, this compound returned a TGI of over 100 µM.

In the case of `COc1ccc(O)c(/C=N\Nc2ccccc2)c1`, the TGI with A498 renal is 91.6 µM; in the assay on DU-145 prostate it was over 100 µM; with HOP-62 NSCLC, over 100 µM; in the assay with MOLT-4 leukemia, 18.2 µM; in the assay on NCI-H522 lung it was 49.2 µM; in the assay on SK-MEL-28 melanoma, 91.4 µM. Also, the TGI with UO-31 renal is over 100 µM.

Consider `COc1ccc(-c2cnc(-c3ccc(OC)cc3)n2-c2cc(OC)c(OC)c(OC)c2)cc1`, for which the GI50 in the assay with A498 renal is 12.1 µM; in the assay with DU-145 prostate it was 30.7 µM; in the assay on HOP-62 NSCLC, 21.4 µM; with MOLT-4 leukemia, 13.1 nM; in the assay on NCI-H522 lung, 29.5 µM; with SK-MEL-28 melanoma, 24.4 µM. Further, the GI50 with UO-31 renal was 18.2 µM. Moreover, the TGI with A498 renal was 39.5 µM; with DU-145 prostate it was 78.2 µM; with HOP-62 NSCLC, 44.9 µM; in the assay on MOLT-4 leukemia, 0.044 µM; in the assay on NCI-H522 lung, over 100 µM; with SK-MEL-28 melanoma, 92 µM. Besides, the TGI with UO-31 renal came to 50 µM.

As for `Cc1cccc2c(=O)c3c(sc12)c(NCCCNCCO)nc1ccccc13`, the GI50 with A498 renal was 1.3 µM; with DU-145 prostate, 1.57 µM; with HOP-62 NSCLC, 1.22 µM; with MOLT-4 leukemia, 1130 nM; in the assay on NCI-H522 lung, 1.65 µM; in the assay with SK-MEL-28 melanoma, 1.73 µM. The GI50 in the assay with UO-31 renal was 1.19 µM. The TGI came out at 2.83 µM in the assay with A498 renal; 2.96 µM in the assay on DU-145 prostate; 2.75 µM in the assay on HOP-62 NSCLC; 2.62 µM with MOLT-4 leukemia; 3.54 µM in the assay with NCI-H522 lung; 3.18 µM in the assay with SK-MEL-28 melanoma. Moreover, the TGI in the assay on UO-31 renal worked out at 2.55 µM.

Turning to `COc1ccc(C(=O)/C=C/c2cc(-c3ccc(OC)c(OC)c3)n[nH]2)cc1OC`, the GI50 in the assay with A498 renal was 1.27 µM; with DU-145 prostate it was 1.64 µM; with HOP-62 NSCLC it was 1.73 µM; in the assay on MOLT-4 leukemia, 2200 nM; in the assay on NCI-H522 lung it was 1.69 µM; in the assay with SK-MEL-28 melanoma, 1.82 µM. The GI50 with UO-31 renal is 1.5 µM. The TGI was 3.2 µM with A498 renal; 4.8 µM in the assay with DU-145 prostate; 5.6 µM in the assay with HOP-62 NSCLC; over 100 µM with MOLT-4 leukemia; 3.9 µM with NCI-H522 lung; 4.82 µM in the assay on SK-MEL-28 melanoma. Moreover, the TGI in the assay on UO-31 renal worked out at 3.8 µM.

With `O=S(O)O.O=S(O)O.[Co].[NH2-].[NH2-].[NH2-].[NH2-]`, the GI50 with A498 renal is over 100 µM; with DU-145 prostate it was over 100 µM; with HOP-62 NSCLC, over 100 µM; in the assay on NCI-H522 lung, over 100 µM; in the assay with SK-MEL-28 melanoma it was over 100 µM; in the assay with SR leukemia it was over 100000 nM. The GI50 in the assay on UO-31 renal is over 100 µM. Further, the TGI in the assay on A498 renal, with DU-145 prostate, in the assay with HOP-62 NSCLC, with NCI-H522 lung, with SK-MEL-28 melanoma and in the assay on SR leukemia was over 100 µM throughout. Further, the TGI in the assay on UO-31 renal is over 100 µM.

On to `CCCCN(CCCC)P(=O)(Oc1ccccc1)Oc1ccccc1`, for which the GI50 with A498 renal was 11.6 µM; in the assay on DU-145 prostate it was 11.1 µM; in the assay on HOP-62 NSCLC, 14 µM; in the assay with MOLT-4 leukemia, 6180 nM; in the assay on NCI-H522 lung it was 3.96 µM; in the assay with SK-MEL-28 melanoma, 15.3 µM. Further, in the assay on SR leukemia, the GI50 was 7340 nM. Moreover, the TGI with A498 renal came to 24.1 µM; in the assay on DU-145 prostate, 24 µM; with HOP-62 NSCLC, 27.7 µM; in the assay with MOLT-4 leukemia, 38.4 µM; with NCI-H522 lung, 18.2 µM; in the assay with SK-MEL-28 melanoma, 29.2 µM. In addition, the TGI with SR leukemia turned out to be 68.5 µM.

For the compound `COc1ccc(Sc2[nH]c(C=O)c3ccccc23)cc1`, the GI50 with A498 renal was 3.44 µM; in the assay with DU-145 prostate, 6.25 µM; with HOP-62 NSCLC it was 15.5 µM; in the assay on MOLT-4 leukemia, 1310 nM; in the assay with NCI-H522 lung, 14.3 µM; in the assay on SK-MEL-28 melanoma, 15.1 µM. In the assay with UO-31 renal, the GI50 is 5.11 µM. Also, the TGI with A498 renal amounted to 23.5 µM; in the assay on DU-145 prostate, 21.6 µM; in the assay with HOP-62 NSCLC it was 29.7 µM; with MOLT-4 leukemia, 19 µM; with NCI-H522 lung it was 31.8 µM; in the assay with SK-MEL-28 melanoma, 30 µM. Moreover, the TGI in the assay on UO-31 renal was 22.2 µM.

Consider `COC(=O)[C@H](Cc1cn(C)cn1)NC(=O)[C@H](CC(C)C)NC(=O)Nc1cc(C(F)(F)F)cc(C(F)(F)F)c1`, for which the GI50 in the assay on A498 renal is over 10 µM; with DU-145 prostate, over 10 µM; in the assay with HOP-62 NSCLC, over 10 µM; in the assay on MOLT-4 leukemia, 3400 nM; in the assay on SK-MEL-28 melanoma, 8 µM; with SR leukemia, 2590 nM. In the assay with UO-31 renal, the GI50 is over 10 µM. For the same compound, the TGI in the assay on A498 renal is over 10 µM; in the assay on DU-145 prostate, over 10 µM; in the assay on HOP-62 NSCLC, over 10 µM; in the assay on MOLT-4 leukemia it was over 10 µM; with SK-MEL-28 melanoma, over 10 µM; in the assay on SR leukemia it was 8.41 µM. In addition, the TGI in the assay on UO-31 renal is over 10 µM.

For the compound `c1cc(OCCN2CCCC2)ccc1CNc1ccc2nc(CCC3CCCCC3)[nH]c2c1`, the GI50 is 1.15 µM in the assay on A498 renal; 3.43 µM with DU-145 prostate; 1.71 µM with HOP-62 NSCLC; 1760 nM in the assay on MOLT-4 leukemia; 2.1 µM in the assay on NCI-H522 lung; 290 nM in the assay on SR leukemia. In addition, the GI50 with UO-31 renal is 1.42 µM. Moreover, the TGI turned out to be 2.77 µM in the assay with A498 renal; 12.4 µM with DU-145 prostate; 3.62 µM with HOP-62 NSCLC; 5.81 µM in the assay with MOLT-4 leukemia; 4.47 µM with NCI-H522 lung; 1.03 µM with SR leukemia. The compound also registered a TGI in the assay with UO-31 renal of 2.75 µM.
